{
  "source": "patent US20090215729A1",
  "about": "“MICROPARTICLE COMPOSITIONS TO MODIFY CANCER PROMOTING CELLS” (priority 2008, published 2009)",
  "test_system": "4t1-luc cancer cells",
  "assay": "syngeneic 4t1 mouse model of breast cancer, tumor volume growth",
  "assay_type": "in vivo",
  "details": "Balb/c mice, tail vein injection 100 microliters, six administrations, twice a week starting day 1 after tumor challenge, caliper measurements, relative to PBS control",
  "description": "In vivo testing was done with a syngeneic 4t1 model of breast cancer in immuno-competent Balb/c mice. […] Briefly, primary tumors were established in mammary tissue of 6 week old Balb/c mice by injection of 106 4t1-12B cells subcutaneously under the nipple. The mice were kept in standard housing and with a normal diet. Each group of mice (6-10 per group, 20 g±10% body weight) were injected (100 microliters) 2 times per week through the tail vein for a period of 3 weeks, starting either on day one or day six after the tumor challenge. Clodronate solution was dissolved in PBS and given intravenously starting on day one after tumor challenge. Control mice were injected intravenously through the tail vein with PBS. Tumor growth was measured in a blinded fashion with a caliper each week and tumor volumes were calculated using the measured dimensions. Body weights were recorded weekly, and mice were sacrificed on day 34.",
  "data": [
    {"smiles": "O=P(O)(O)C(Cl)(Cl)P(=O)(O)O", "note": "[Clodronate (5.6 mg/mL) in PBS, clodronate]", "values": [
      {"measurement": "tumor volume growth of 4t1-luc cancer cells", "result": "did not inhibit the growth of 4 μl tumors relative to PBS control"},
      {"measurement": "tumor volume growth of 4t1-luc cancer cells", "setting": "listed as clodronate solution", "result": "unable to inhibit growth of 4 μl tumors as effectively as clodronate-hydroxyapatite"}
    ]}
  ]
}
